Results reported in ChEMBL document CHEMBL1955821, “Biotransformations of 6',7'-dihydroxybergamottin and 6',7'-epoxybergamottin by the citrus-pathogenic fungi diminish cytochrome P450 3A4 inhibitory activity” (Bioorg Med Chem Lett, 2012).
Values belong to the compound of their own block, whether it stands above or below them.

Assays:
Lasiodiplodia theobromae [1] = assay: Drug metabolism in Lasiodiplodia theobromae assessed as 6',7'-dihydroxybergamottin level at 78.2 uM after 5 days; type: ADME, organism-based; conditions: in vivo, 120 h
[2] = Drug metabolism in Penicillium ulaiense assessed as decrease in 6',7'-dihydroxybergamottin level at 23.7 uM after 4 days; type: ADME; conditions: 96 h
Geotrichum [3] = assay: Drug metabolism in Geotrichum citri assessed as 6',7'-dihydroxybergamottin level at 78.2 uM after 5 days; type: ADME, organism-based; conditions: in vivo, 120 h
Penicillium digitatum [4] = assay: Drug metabolism in Penicillium digitatum assessed as compound level at 78.2 uM after 5 days; type: ADME, organism-based; conditions: in vivo, 120 h
[5] = Drug metabolism in Penicillium ulaiense assessed as production of 6,7-furano-5-(6',7'-dihydroxygeranyloxy)-2-hydroxy-hydrocoumaric acid at 23.7 uM upto 10 days; type: ADME; conditions: 240 h
[6] = Drug metabolism in Penicillium ulaiense assessed as bergaptol level at 78.2 uM after 5 days; type: ADME; conditions: 120 h
[7] = Drug metabolism in Phomopsis citri assessed as 6',7'-dihydroxybergamottin level at 78.2 uM after 5 days; type: ADME; conditions: diaporthe citri, 120 h
Botrytis cinerea [8] = assay: Drug metabolism in Botrytis cinerea assessed as compound level at 78.2 uM after 5 days; type: ADME, organism-based; conditions: in vivo, 120 h
Lasiodiplodia theobromae [9] = assay: Drug metabolism in Lasiodiplodia theobromae assessed as 6,7-furano-5-(6',7'-dihydroxygeranyloxy)-2-hydroxy-hydrocoumaric acid level at 78.2 uM after 5 days; type: ADME, organism-based; conditions: in vivo, 120 h
[10] = Drug metabolism in submerged cultures of Penicillium ulaiense assessed as decrease in compound concentration at 23.7 uM after 8 days; type: ADME; conditions: 192 h
[11] = Drug metabolism in Penicillium ulaiense assessed as 6,7-furano-5-(6',7'-dihydroxygeranyloxy)-2-hydroxy-hydrocoumaric acid level at 78.2 uM after 5 days; type: ADME; conditions: 120 h
Penicillium digitatum [12] = assay: Drug metabolism in Penicillium digitatum assessed as 6,7-furano-5-(6',7'-dihydroxygeranyloxy)-2-hydroxy-hydrocoumaric acid level at 78.2 uM after 5 days; type: ADME, organism-based; conditions: in vivo, 120 h
[13] = Drug metabolism in Phomopsis citri assessed as compound level at 78.2 uM after 5 days; type: ADME; conditions: diaporthe citri, 120 h
[14] = Drug metabolism in Phomopsis citri assessed as bergaptol level at 78.2 uM after 5 days; type: ADME; conditions: diaporthe citri, 120 h
Penicillium digitatum [15] = assay: Drug metabolism in Penicillium digitatum assessed as 6',7'-dihydroxybergamottin level at 78.2 uM after 5 days; type: ADME, organism-based; conditions: in vivo, 120 h
Lasiodiplodia theobromae [16] = assay: Drug metabolism in Lasiodiplodia theobromae assessed as compound level at 78.2 uM after 5 days; type: ADME, organism-based; conditions: in vivo, 120 h
Lasiodiplodia theobromae [17] = assay: Drug metabolism in Lasiodiplodia theobromae assessed as bergaptol level at 78.2 uM after 5 days; type: ADME, organism-based; conditions: in vivo, 120 h
Geotrichum [18] = assay: Drug metabolism in Geotrichum citri assessed as 6,7-furano-5-(6',7'-dihydroxygeranyloxy)-2-hydroxy-hydrocoumaric acid level at 78.2 uM after 5 days; type: ADME, organism-based; conditions: in vivo, 120 h
[19] = Drug metabolism in Penicillium ulaiense assessed as compound level at 78.2 uM after 5 days; type: ADME; conditions: 120 h
Geotrichum [20] = assay: Drug metabolism in Geotrichum citri assessed as production of 6,7-furano-5-(6',7'-dihydroxygeranyloxy)-2-hydroxy-hydrocoumaric acid at 23.7 uM after 2 days; type: ADME, organism-based; conditions: in vivo, 48 h
Geotrichum [21] = assay: Drug metabolism in Geotrichum citri assessed as bergaptol level at 78.2 uM after 5 days; type: ADME, organism-based; conditions: in vivo, 120 h
[22] = Drug metabolism in Penicillium ulaiense assessed as production of 6,7-furano-5-(6',7'-dihydroxygeranyloxy)-2-hydroxy-hydrocoumaric acid at 23.7 uM after 2 days; type: ADME; conditions: 48 h
[23] = Drug metabolism in submerged cultures of Penicillium ulaiense assessed as decrease in compound concentration at 23.7 uM after 2 days; type: ADME; conditions: read-out: Drug metabolism
[24] = Drug metabolism in Penicillium ulaiense assessed as 6',7'-dihydroxybergamottin level at 78.2 uM after 5 days; type: ADME; conditions: 120 h
Botrytis cinerea [25] = assay: Drug metabolism in Botrytis cinerea assessed as 6,7-furano-5-(6',7'-dihydroxygeranyloxy)-2-hydroxy-hydrocoumaric acid level at 78.2 uM after 5 days; type: ADME, organism-based; conditions: in vivo, 120 h
Geotrichum [26] = assay: Drug metabolism in Geotrichum citri assessed as compound level at 78.2 uM after 5 days; type: ADME, organism-based; conditions: in vivo, 120 h
[27] = Drug metabolism in Phomopsis citri assessed as 6,7-furano-5-(6',7'-dihydroxygeranyloxy)-2-hydroxy-hydrocoumaric acid level at 78.2 uM after 5 days; type: ADME; conditions: diaporthe citri, 120 h
[28] = Drug metabolism in Penicillium ulaiense assessed as production of bergaptol at 23.7 uM up to 10 days; type: ADME; conditions: 240 h
Botrytis cinerea [29] = assay: Drug metabolism in Botrytis cinerea assessed as 6',7'-dihydroxybergamottin level at 78.2 uM after 5 days; type: ADME, organism-based; conditions: in vivo, 120 h
Cytochrome P450 3A4 = Cytochrome P450 3A4 (Homo sapiens, UniProt P08684); assay: Inhibition of CYP3A4 after 30 mins by fluorescence assay; type: ADME
Chain of Cytochrome P450 3A4 (P08684 whole entry): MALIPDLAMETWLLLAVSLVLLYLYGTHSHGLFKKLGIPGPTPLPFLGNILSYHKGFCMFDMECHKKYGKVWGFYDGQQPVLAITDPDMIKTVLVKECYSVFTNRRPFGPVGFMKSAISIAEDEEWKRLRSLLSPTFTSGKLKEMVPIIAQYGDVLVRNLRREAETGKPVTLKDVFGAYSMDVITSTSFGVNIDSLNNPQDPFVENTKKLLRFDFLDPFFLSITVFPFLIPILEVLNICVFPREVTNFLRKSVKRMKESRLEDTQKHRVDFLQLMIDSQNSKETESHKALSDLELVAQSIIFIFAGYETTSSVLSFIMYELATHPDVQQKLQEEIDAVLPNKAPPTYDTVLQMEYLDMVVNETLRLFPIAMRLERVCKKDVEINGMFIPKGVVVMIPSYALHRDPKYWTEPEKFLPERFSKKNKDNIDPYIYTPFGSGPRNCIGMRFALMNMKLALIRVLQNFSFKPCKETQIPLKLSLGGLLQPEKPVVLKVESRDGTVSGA

- Drug metabolism (Lasiodiplodia theobromae [1]): 23.9 µM
- Drug metabolism [2]: Active
- Drug metabolism (Geotrichum [3]): 7.3 µM
- Drug metabolism (Penicillium digitatum [4]): 0.1 µM
- Drug metabolism [5]: Active
- Drug metabolism [6]: 0.3 µM
- Drug metabolism [7]: 3.3 µM
- Drug metabolism (Botrytis cinerea [8]): 1.3 µM
- Drug metabolism (Lasiodiplodia theobromae [9]): 12.6 µM
- Drug metabolism [10]: Active
- Drug metabolism [11]: 46.6 µM
- Drug metabolism (Penicillium digitatum [12]): 32 µM
- Drug metabolism [13]: 1.3 µM
- Drug metabolism [14]: 0.7 µM
- Drug metabolism (Penicillium digitatum [15]): 8.3 µM
- Drug metabolism (Lasiodiplodia theobromae [16]): 1.1 µM
- Drug metabolism (Lasiodiplodia theobromae [17]): 10.3 µM
- Drug metabolism (Geotrichum [18]): 24.3 µM
- Drug metabolism [19]: 0.7 µM
- Drug metabolism (Geotrichum [20]): 7.4 µM
- Drug metabolism (Geotrichum [21]): 3.9 µM
- Drug metabolism [22]: < 0.5 µM
- metabolised at 48 h, 23.7 µM [23]: > 90%
- Drug metabolism [24]: 0.5 µM
- Drug metabolism (Botrytis cinerea [25]): 25.1 µM
- Drug metabolism (Geotrichum [26]): 8.2 µM
- Drug metabolism [27]: 4.1 µM
- Drug metabolism [28]: Active
- Drug metabolism (Botrytis cinerea [29]): 5 µM
Compound: C/C(=C\COc1c2ccoc2cc2oc(=O)ccc12)CCC1OC1(C)C (stereo unspecified) [6',7'-EPOXYBERGAMOTTIN]

- IC50 (Cytochrome P450 3A4): > 172000 nM
Compound: C/C(=C\COc1c(CCC(=O)O)c(O)cc2occc12)CCC(O)C(C)(C)O (stereo unspecified)

- IC50 (Cytochrome P450 3A4): 810 nM
Compound: C/C(=C\COc1c2ccoc2cc2oc(=O)ccc12)CC[C@@H](O)C(C)(C)O
